Changes are numbered by the printed parent chain.
Assays:
Format in all cases: biochemical
[1] = target: T1, GR/GSH/Grx (glutaredoxin 2, Grx2) (Homo sapiens, UniProt Q9NS18); test: Enzymatic activation assay: GR/GSH/Grx2; conditions: full mixture NADPH/GR/GSH/Grx2
T1 sequence (Q9NS18 20-164): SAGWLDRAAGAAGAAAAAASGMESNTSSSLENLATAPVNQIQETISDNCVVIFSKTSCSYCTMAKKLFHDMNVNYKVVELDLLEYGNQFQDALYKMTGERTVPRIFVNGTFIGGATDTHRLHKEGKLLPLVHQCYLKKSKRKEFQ
Text: (§1) This assay (see FIG. 2) examined the resistance of disulfide-based reduction-triggered compounds to the major cellular enzymatic systems that maintain redox homeostasis and are capable of reducing disulfides, evaluated in a cell-free assay, to see if these compounds can be useful for selective enzyme-triggered release.
Assay conditions: A black 96-well plate with black bottom was charged with solutions of fluorophore-releasing reduction-triggered probes that are compounds of the invention (P1, P2) or that are not compounds of the invention and reveal the performance of prior art systems (X19) (50 μL; 40 μM in aq. TE buffer (pH 7.4) and 4 μL DMSO). […]
(§2) Data Representation: (F(t)-F^NADPH(t)) is the fluorescence intensity of the test solution at time t, from which is subtracted a background fluorescence level also at time t from a solution with NADPH (which itself is fluorescent, and is present in 10-fold higher concentration than the probe) and with the same protein mixture but without the probe. F^max(t) is the maximum possible fluorescence intensity value at time t, determined by incubation with TCEP (100 μM)) similarly as for the chemical reductant assay. (F(t)−F^NADPH(t))/F^max(t) thus gives the timecourse of fluorescence signal, as a fraction of the maximum possible fluorescence signal. […]

[2] = target: T2, GR/GSH (Homo sapiens, UniProt P00390); test: Enzymatic activation assay: GR/GSH; conditions: NADPH/GR/GSH
T2 sequence (P00390 44-522): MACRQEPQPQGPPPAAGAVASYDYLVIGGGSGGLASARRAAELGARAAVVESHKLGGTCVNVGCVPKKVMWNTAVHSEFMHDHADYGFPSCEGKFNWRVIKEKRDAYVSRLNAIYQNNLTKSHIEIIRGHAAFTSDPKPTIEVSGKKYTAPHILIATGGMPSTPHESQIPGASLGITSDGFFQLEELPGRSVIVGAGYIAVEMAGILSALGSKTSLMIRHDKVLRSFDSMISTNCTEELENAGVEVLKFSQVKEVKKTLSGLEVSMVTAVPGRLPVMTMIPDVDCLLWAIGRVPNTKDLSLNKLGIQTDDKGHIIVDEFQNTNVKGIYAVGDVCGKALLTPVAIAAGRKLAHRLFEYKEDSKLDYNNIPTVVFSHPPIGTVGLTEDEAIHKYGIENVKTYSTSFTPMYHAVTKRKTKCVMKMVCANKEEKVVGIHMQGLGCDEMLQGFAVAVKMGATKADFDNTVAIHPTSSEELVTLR
Text: as §1
(§3) Assay conditions: A black 96-well plate with black bottom was charged with solutions of fluorophore-releasing reduction-triggered probes that are compounds of the invention (P1, P2) or that are not compounds of the invention and reveal the performance of prior art systems (X19) (50 μL; 40 μM in aq. TE buffer (pH 7.4) and 4 μL DMSO). Separately, master mixes (30 μL in aq. TE buffer (pH 7.4)) containing mixtures of the proteins human recombinant thioredoxin 1 (Trx1, 0.166-16.66 μM) or thioredoxin 2 (Trx2, 3.3 μM), or human recombinant glutaredoxin 1 (“Grx1”, 3.3 μM) or glutaredoxin 2 (Grx2, 3.3 μM) and/or oxidoreductases human recombinant thioredoxin reductase 1 (TrxR1, 0.07 μM), the thioredoxin reductase Secys498Cys mutant (TrxR1-U498C, 0.07 μM), thioredoxin reductase 2 (TrxR2, 0.07 μM) or human recombinant glutathione reductase (GR, 0.07 μM), and/or GSH (3.3 μM) were prepared. Note that TrxR1 (U498C) has decreased reducing power compared to TrxR1 due to the mutation of the key vicinal selenothiol/thiol into a vicinal dithiol, but it still reduces Trx1. […]
as §2

[3] = target: T3, thioredoxin reductase 1 (TrxR1) (Homo sapiens, UniProt Q16881); test: Enzymatic activation assay: NADPH/TrxR1 without Trx; conditions: NADPH/TrxR1, no Trx added, 37° C., 6 h
T3 sequence (Q16881 1-499 isoform Q16881-5): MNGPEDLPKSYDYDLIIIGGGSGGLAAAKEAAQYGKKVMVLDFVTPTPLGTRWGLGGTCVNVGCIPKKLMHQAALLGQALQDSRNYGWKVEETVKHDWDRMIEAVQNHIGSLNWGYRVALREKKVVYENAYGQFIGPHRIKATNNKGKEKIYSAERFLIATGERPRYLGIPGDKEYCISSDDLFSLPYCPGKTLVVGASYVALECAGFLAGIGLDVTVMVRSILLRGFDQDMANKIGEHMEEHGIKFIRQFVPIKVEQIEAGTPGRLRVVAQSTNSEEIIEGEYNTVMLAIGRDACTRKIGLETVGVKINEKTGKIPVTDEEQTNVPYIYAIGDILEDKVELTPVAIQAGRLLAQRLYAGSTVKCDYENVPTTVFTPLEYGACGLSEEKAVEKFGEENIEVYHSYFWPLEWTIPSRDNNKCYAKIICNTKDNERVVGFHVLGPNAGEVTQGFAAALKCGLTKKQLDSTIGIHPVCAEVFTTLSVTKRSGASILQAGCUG
Text: as §1, §3, §2

[4] = target: T4, TrxR1(U498C) (Homo sapiens, UniProt Q16881); test: Enzymatic activation assay: TrxR1 Secys498Cys mutant; conditions: NADPH; for cargo release / processing by TrxR1(U498C)/Trx1: TrxR1(U498C) with Trx1
T4 sequence (Q16881 with tags, fused parts or gaps isoform Q16881-5): T3 sequence (Q16881 1-499 isoform Q16881-5) with U498C
Text: as §1, §3, §2

`O=C(Oc1ccc(Cl)cc1-c1nc2ccc(Cl)cc2c(=O)[nH]1)N1CCC[C@@H]2CSSC[C@H]21` (racemic) [Compound P1, 4-chloro-2-(6-chloro-4-oxo-3,4-dihydroquinazolin-2-yl)phenyl-(trans)-hexahydro-[1,2]dithiino[4,5-b]pyridine-1(2H)-carboxylate] was tested, and the “cargo release / processing by GR/GSH/Grx2” value [1] was “only processed by high levels of Grx1 and Grx2”, the “cargo release / processing by GR/GSH mixture” value [2] was “resist” and the “cargo release / processing by TrxR1” value [3] was “not processed”. For the same compound, the “cargo release / processing by TrxR1(U498C)/Trx1” value [4] was “not processed”.
For “4-chloro-2-(6-chloro-4-oxo-3,4-dihydroquinazolin-2-yl)phenyl methyl(2-((2-(methyl amino)ethyl)disulfaneyl)ethyl)carbamate [Compound X19, reference compound]”, the “cargo release / processing by GR/GSH mixture” value [2] was “rapidly degraded”, the “cargo release / processing by TrxR1” value [3] was “rapidly degraded” and the “cargo release / degradation by TrxR1(U498C)” value ([4]; TrxR1(U498C)) was “rapidly degraded”.
For `O=C(Oc1ccc(Cl)cc1-c1nc2ccc(Cl)cc2c(=O)[nH]1)N1CCC[C@@H]2CSSC[C@@H]21` (racemic) [Compound P2, 4-chloro-2-(6-chloro-4-oxo-3,4-dihydroquinazolin-2-yl)phenyl-(cis)-hexahydro-[1,2]dithiino[4,5-b]pyridine-1(2H)-carboxylate], the “cargo release / processing by GR/GSH/Grx2” value [1] was “only processed by high levels of Grx1 and Grx2”, the “cargo release / processing by GR/GSH mixture” value [2] was “resist” and the “cargo release / processing by TrxR1” value [3] was “not processed”. The “cargo release / processing by TrxR1(U498C)/Trx1” value [4] was “not processed”.

Source: US20240207414A1, “DISULFIDE-BASED PRODRUG COMPOUND” (Ludwig-Maximilians-Universitat Munchen, priority 2021, published 2024)
